Data set [1] has as its system Candida parapsilosis CCM 8260. In words: candidacidal MIC, microdilution method. The class given is cell-based. Conditions: Lodderomyces parapsilosis, CCM8260, 48 h, 37 °C. How it is done:
(§1) In order to provide a look into the potential usefulness of the derivatives 5a–l as the candidates for a development of anti-yeast (candidacidal) agents, they were in vitro tested against Candida albicans CCM 8261 (CA 8261), C. krusei CCM 8271 (CK 8271) and C. parapsilosis CCM 8260 (CP 8260). The yeasts were obtained from the Czech Collection of Microorganisms (Masaryk University, Faculty of Science, Brno, Czech Republic). They were grown and kept on Sabouraud agar (Oxoid Limited, Basingstoke, UK).
(§2) For the screening, the microdilution method according to the Antimicrobial Susceptibility Testing Protocols was applied. The inoculum was prepared from the cultures grown on Sabouraud agar. With the sterile solution of NaCl, the inoculum was prepared to the 0.5 McFarland units using the Densi-La-Meter densitometer (LIAP, Riga, Latvia) and diluted a thousand‑fold with the Roswell Park Memorial Institute (RPMI) 1640 medium (Sigma-Aldrich, Darmstadt, Germany). Prepared suspension was used for an inoculation of microtitre plates. Final concentration in wells ranged from 5.0 × 10^2 CFU/mL to 2.5 × 10^3 CFU/mL. […] For the determination of the MICs, the stock solutions of all the tested compounds were diluted in the microtitre checkerboard to the final concentration varying from 128 μg/mL to 0.125 μg/mL. Drug-free control, sterility control and the control consisted of a medium and DMSO alone were included. Inoculated microtitre plates were incubated for 48 h in the darkness at 37 °C in an aerobic atmosphere. The results were estimated against static light.
(§3) The MIC was defined as the lowest concentration of the tested compound at which no visible growth was observed. To ensure reproducibility of the results, each candidacidal MIC assay was performed triplicate on separate occasions. It was important to note that all the MICs from the in vitro antimicrobial screening were expressed in μg/mL units and were available in Tables S3 and S4 (Supplementary Materials).

The test system of data set [2] is Candida albicans CCM 8261. Nature of the data set: candidacidal MIC, microdilution method. Conditions: Candida albicans, CCM8261, 48 h, 37 °C. The class given is cell-based. How it is done:
as §1, §2, §3

In data set [3] the test system is Candida krusei CCM 8271. In words: candidacidal MIC, microdilution method. It is filed as cell-based. Conditions: Pichia kudriavzevii, CCM8271, 48 h, 37 °C. The procedure:
as §1, §2, §3

Details of data set [4]: method as in PMID 16209439, PMID 16209439. Conditions: potentiometric titration; cited from earlier work.
For data set [5], the system named is M. marinum CAMP 5644. In words: antimycobacterial MIC, broth dilution micromethod. The class given is cell-based. The following applies: Mycobacterium marinum, CAMP5644, 504 h, 21 days at 28 °C.
On the set-up of data set [6]: method as in PMID 16209439, PMID 16209439, doi:10.2478/s11696-006-0007-y. Conditions: octan-1-ol/phosphate buffer (pH = 7.4); cited from earlier work.
The test system of data set [7] is M. smegmatis ATCC 700084. In words: antimycobacterial MIC, broth dilution micromethod. It is filed as cell-based. The following applies: Mycolicibacterium smegmatis, ATCC700084, 72 h, 3 days at 37 °C.
The subject of data set [8] is M. kansasii DSM 44162. Nature of the data set: antimycobacterial MIC, broth dilution micromethod. The class given is cell-based. The following applies: Mycobacterium kansasii, DSM44162, 168 h, 7 days at 37 °C.
Data set [9] concerns methicillin-resistant Staphylococcus aureus 63718. In words: antibacterial MIC, microtitration broth method. Conditions: MRSA, 37 °C. The class given is cell-based. How it is done:
(§4) Prior to the testing, each strain was transferred into a nutrient agar (Oxoid Limited, Basingstoke, UK), which was enriched with 5% defibrinated bovine blood.
(§5) The MICs were determined by the microtitration broth method in the cation-adjusted Mueller-Hinton broth (Becton Dickinson, Oxford, UK) according to an international interdisciplinary Clinical Laboratory Standard Institute guidelines.
(§6) The checkerboard was inoculated by the bacterial inocula, which were prepared in a phosphate buffered saline solution with the pH = 7.2–7.3 to simulate physiological pH. The final concentration of each inoculum in the final volume of 100 μL in the wells was approximately 7.5 × 10^6 CFU/mL. Drug-free controls, sterility controls and the controls consisted of the broth with DMSO were included. The determination of the results was performed visually after 24 h of static incubation in the darkness at 37 °C in an aerobic atmosphere.
(§7) To ensure reproducibility, each antibacterial MIC assay was performed triplicate on separate occasions.

The test system of data set [10] is Escherichia coli ATCC 25922. Nature of the data set: antibacterial MIC, microtitration broth method. The following applies: 37 °C. It is filed as cell-based. How it is done: as §4, §5, §6, §7
The subject of data set [11] is Staphylococcus aureus ATCC 29213. In words: antibacterial MIC, microtitration broth method. It is filed as cell-based. Conditions: 37 °C. How it is done: as §4, §5, §6, §7
Data set [12] deals with Enterococcus faecalis ATCC 29212. Nature of the data set: antibacterial MIC, microtitration broth method. The class given is cell-based. The following applies: 37 °C. How it is done: as §4, §5, §6, §7
In data set [13] the test system is Mycobacterium avium subsp. paratuberculosis CIT03. In words: antimycobacterial MIC, MB broth, alamarBlue. The class given is cell-based. Conditions: 264 h, read-out: MIC MAP. How it is done:
The Mycobacterium avium subsp. paratuberculosis CIT03 strain was grown in the Middlebrook (MB) broth, supplemented with the Oleic-Albumin-Dextrose-Catalase Supplement (OADC, Becton Dickinson, Oxford, UK) and the mycobactin J (2 μg/mL). The commercially available siderophore mycobactin J reduced the incubation period of M. avium subsp. paratuberculosis in a complex medium when compared to the medium containing the mycobactin P as a growth factor.
The identification of the isolate was performed using biochemical and molecular protocols. At a log phase growth, a culture sample (10 mL) was centrifuged at 15,000 rpm/20 min using a bench top centrifuge (Model CR 4-12, Jouan Inc., London, UK). Following removal of the supernatant, the pellet was washed in fresh Middlebrook 7H9GC broth and re-suspended in fresh supplemented MB broth (10 mL). The turbidity was adjusted to match the McFarland standard No. 1 containing approximately 3.0 × 10^8 Colony Forming Units (CFU) with the MB broth. Further 1:20 dilution of the culture was performed in the MB broth. The susceptibility of given mycobacterial species was investigated in a 96-well plate format. In those experiments, sterile deionised water (300 μL) was added to all outer-perimeter wells of the plates to minimize an evaporation of the medium in the test wells during the incubation process. Each evaluated compound (100 μL) was incubated with the mycobacterial species (100 μL). The dilutions of a particular compound were prepared in triplicate. For all inspected derivatives, final concentrations ranged from 1000 μg/mL to 60 μg/mL. All compounds were prepared in dimethyl sulfoxide (DMSO; Sigma-Aldrich, Irvine, UK) and subsequent dilutions were made in the supplemented MB broth. The plates were sealed with a parafilm and incubated at 37 °C for 11 days. Following the incubation, a 10% addition of a water‑soluble dye, the alamarBlue reagent (AbD Serotec, Kidlington, UK), was mixed into each well. Absorbance readings at 570 nm and 600 nm were taken, initially for background subtraction and after 24 h re-incubation. The subtraction is necessary for strongly coloured compounds, where the colour may interfere with the interpretation of any colour change. For non-interfering compounds, a blue colour in a well was interpreted as an absence of a growth and a pink colour was scored as a growth.
The minimum inhibitory concentration (MIC) was defined as the lowest concentration of the compound at which no visible bacterial growth was observed. In other words, the MIC was the lowest concentration that prevented a visual colour change from blue to pink. The MIC value has been routinely and widely used in bacterial assays and it has been a standard detection limit according to the Clinical and Laboratory Standards Institute. The clinically used antimycobacterial drugs INH and RIF were applied as the standards.

Where two headings read alike, the source gives them in different places.

For `COc1ccccc1NC(=O)OCC(O)CN1CCN(c2ccc(F)cc2)CC1` (stereo not drawn) [Compound 5g], the MIC was > 291 µM in data set [1]; > 128 µg/mL in [1] (Table S4); > 291 µM in data set [2]; > 128 µg/mL in [2] (Table S4); > 291 µM in data set [3]; > 128 µg/mL in [3] (Table S4). Also, the MIC in data set [5] turned out to be 145 µM; in data set [5] (Table S3) it was 64 µg/mL; in data set [7], 582 µM; in data set [7] (Table S3), 256 µg/mL; in [8] it was 145 µM; in data set [8] (Table S3), 64 µg/mL. Besides, the MIC in [9] (24 h) is > 582 µM; in [9] (Table S4, 24 h) it was > 256 µg/mL; in data set [10] (ATCC25922, 24 h), > 582 µM; in [10] (ATCC25922, Table S4, 24 h), > 256 µg/mL; in data set [11] (ATCC29213, 24 h), > 582 µM; in data set [11] (ATCC29213, Table S4, 24 h), > 256 µg/mL. The MIC in data set [12] (ATCC29212, 24 h) was > 582 µM; in data set [12] (ATCC29212, Table S4, 24 h) it was > 256 µg/mL; in [13] (37 °C, 11 days) it was 2270 µM; in data set [13], 1000 µg/mL. For the same compound, the pKa in [4] was 6.73. In addition, the “log Pexp” value in data set [6] is 3.61.
On to `CCOc1ccccc1NC(=O)OCC(O)CN1CCN(c2ccc(F)cc2)CC1` (stereo not drawn) [Compound 5h], for which the MIC in data set [1] is > 282 µM; in data set [1] (Table S4) it was > 128 µg/mL; in [2] it was > 282 µM; in [2] (Table S4), > 128 µg/mL; in [3], > 282 µM; in data set [3] (Table S4), > 128 µg/mL. The MIC in data set [5] was 282 µM; in data set [5] (Table S3), 128 µg/mL; in data set [7], 564 µM; in data set [7] (Table S3), 256 µg/mL; in [8] it was 282 µM; in data set [8] (Table S3) it was 128 µg/mL. Besides, the MIC in [9] (24 h) is > 564 µM; in [9] (Table S4, 24 h) it was > 256 µg/mL; in [10] (ATCC25922, 24 h) it was > 564 µM; in data set [10] (ATCC25922, Table S4, 24 h) it was > 256 µg/mL; in [11] (ATCC29213, 24 h), > 564 µM; in [11] (ATCC29213, Table S4, 24 h) it was > 256 µg/mL. For the same compound, the MIC was > 564 µM in [12] (ATCC29212, 24 h); > 256 µg/mL in data set [12] (ATCC29212, Table S4, 24 h); 1100 µM in data set [13] (37 °C, 11 days); 500 µg/mL in [13]. Further, the pKa in data set [4] is 6.58. In addition, the “log Pexp” value in data set [6] is 3.90.
As to `COc1cccc(NC(=O)OCC(O)CN2CCN(c3ccc(F)cc3)CC2)c1` (stereo not drawn) [Compound 5i], the MIC in data set [1] is > 291 µM; in data set [1] (Table S4), > 128 µg/mL; in data set [2], > 291 µM; in data set [2] (Table S4) it was > 128 µg/mL; in data set [3], > 291 µM; in data set [3] (Table S4), > 128 µg/mL. Further, the MIC in data set [5] came to 291 µM; in data set [5] (Table S3), 128 µg/mL; in data set [7] it was 582 µM; in data set [7] (Table S3) it was 256 µg/mL; in [8], 145 µM; in [8] (Table S3), 64 µg/mL. Moreover, the minimal inhibitory concentration (MIC) in data set [9] (24 h) was > 582 µM; in [9] (Table S4, 24 h), > 256 µg/mL; in data set [10] (ATCC25922, 24 h) it was > 582 µM; in data set [10] (ATCC25922, Table S4, 24 h) it was > 256 µg/mL; in data set [11] (ATCC29213, 24 h) it was > 582 µM; in data set [11] (ATCC29213, Table S4, 24 h), > 256 µg/mL. Also, the MIC in data set [12] (ATCC29212, 24 h) was > 582 µM; in data set [12] (ATCC29212, Table S4, 24 h), > 256 µg/mL; in data set [13] (37 °C, 11 days) it was 1140 µM; in data set [13], 500 µg/mL. For the same compound, the pKa in data set [4] is recorded as 6.55. For the same compound, the “log Pexp” value in [6] is 3.25.
In the case of `CCOc1cccc(NC(=O)OCC(O)CN2CCN(c3ccc(F)cc3)CC2)c1.Cl` (stereo not drawn) [Compound 5j, 1-[3-(3-ethoxyphenylcarbamoyl)oxy-2-hydroxypropyl]-4-(4-fluorophenyl)piperazin-1-ium chloride], the MIC in data set [1] was > 282 µM; in data set [1] (Table S4) it was > 128 µg/mL; in [2] it was > 282 µM; in data set [2] (Table S4) it was > 128 µg/mL; in [3] it was > 282 µM; in [3] (Table S4), > 128 µg/mL. For the same compound, the MIC was 141 µM in data set [5]; 64 µg/mL in [5] (Table S3); 282 µM in data set [7]; 128 µg/mL in [7] (Table S3); 17.6 µM in [8]; 8 µg/mL in [8] (Table S3). In addition, the MIC in [9] (24 h) was > 564 µM; in data set [9] (Table S4, 24 h), > 256 µg/mL; in [10] (ATCC25922, 24 h), > 564 µM; in data set [10] (ATCC25922, Table S4, 24 h), > 256 µg/mL; in data set [11] (ATCC29213, 24 h), > 564 µM; in [11] (ATCC29213, Table S4, 24 h), > 256 µg/mL. Also, the MIC in [12] (ATCC29212, 24 h) is > 564 µM; in data set [12] (ATCC29212, Table S4, 24 h) it was > 256 µg/mL; in data set [13] (37 °C, 11 days), 551 µM; in data set [13], 250 µg/mL. The pKa in data set [4] was 6.31. Further, the “log Pexp” value in [6] was 3.59.

The values are drawn from PMC6273431, “The Structure–Antimicrobial Activity Relationships of a Promising Class of the Compounds Containing the N-Arylpiperazine Scaffold” (Molecules, 2016).
